Test results published in US4906658A, “Fluoro-sulfones” (Merck Frosst Canada, Inc., priority 1987, dated 1990).
Values joined by “and” are separate entries in the source; they are usually repeats but may differ in a detail not shown here. Equal values may be shown once. Read-outs that look alike come from different tables or passages of the source.

Columns and labels:
[1] = tested on: antigen (egg albumin)-induced continuous dyspnea in inbred asthmatic rats; conditions: 3 μg/kg i.v. before challenge; cited from earlier work
[2] = tested on: leukotrienes C4, D4 and E4 and SRS-A; test: antagonism of leukotrienes C4, D4 and E4 and of SRS-A; conditions: versus closely related compounds within the scope of EP No. 104,885
Source text: The compounds of Formula I are active as antagonists of SRS-A and of leukotriene. The activity of the compounds of Formula I can be detected and evaluated by methods known in the art. See, for example, Kadin, U.S. Pat. No. 4,296,129.

[3] = tested on: antigen (egg albumin)-induced continuous dyspnea in inbred asthmatic rats; test: Asthmatic Rat Assay: duration of continuous dyspnea after aerosolized antigen challenge in sensitized inbred asthmatic rats; assay type: in vivo; conditions: for ED50: Rattus norvegicus, po, read-out: ED50 p.o. (dose which would inhibit the duration of symptoms by 50%)
Source text: Sensitized inbred "asthmatic rats" challenged with aerosolized antigen respond with symptoms of continuous dyspnea which is partly mediated by serotonin. […] These rats differ from normal rats in that they have non-specific bronchial hyperreactivity to a number of bronchoconstrictor agents (Brunet et al, J. Immunol., 131, 434 (1983)).
Pretreatment with drugs is used to measure the decrease of the duration of continuous dyspnea and, at higher doses, to eliminate the response (piechuta et a1, Immunology, 38, 385 (1979)).
(1) Animals: Male and female inbred asthmatic rats were used between 10-12 weeks of age. Their weights ranged from 190-250 gm (females) and 260-400 gm (males). Rats were matched by sex and littermates between the various treatment groups. Animals were starved overnight. Water was supplied ad lib.
(2) Materials: Egg albumin (EA), grade V, crystallized and lyophilized was obtained from Sigma Chemical Co., St. Louis. Aluminum hydroxide was obtained from the Reheis Chemical Company, Chicago. Methysergide Bimaleate was supplied by Sandoz Ltd., Basel, Switzerland. Serotonin creatinine sulfate was obtained from Calbiochem-Behring Corp., La Jolla, Calif.
(3) Apparatus: The challenge and subsequent respiratory recordings were carried out in a clear
plastic box with internal dimensions 10×6×4 inches. The top of the box was removable; in use, it was held firmly in place by four clamps and an airtight seal was maintained by a soft rubber gasket. […] A Fleisch No. 0000 pneumotachograph was inserted into one end of the box and coupled to a Grass volumetric pressure transducer (PT5-A) which was then connected to a Beckman Type R Dynograph through appropriate couplers. While aerosolizing the antigen, the outlets were open and the pneumotachograph was isolated from the chamber. The outlets were closed and the pneumotachograph and the chamber were connected during the recordings of the respiratory patterns. For challenge, 2 mL of a 3% solution of antigen in saline was placed into each nebulizer and the aerosol was generated with air from a small Potter diaphragm pump operating at 10 psi and a flow of 8 liters/min.
(4) Procedure: Rats were sensitized by injecting (s.c.) 1 mL of suspension containing 1 mg albumin (EA) and 200 mg aluminum hydroxide in saline. They were used between days 12 and 24 post sensitization. Rats were exposed to aerosol of 3% EA in saline for exactly 1 minute, then their respiratory profiles were recorded for a further 30 minutes. The duration of continuous dyspnea was measured from the respiratory recordings.
Compounds were generally administered either orally 1, 2, 4 or 6 hours prior to challenge or intravenously 2 minutes prior to challenge. Dose volume for oral treatments was 10 mL/kg and for i.v. treatments 1 mL/kg. Compounds were dissolved in distilled water. Methysergide bimaleate was dissolved in saline and administered intravenously at dose of 3 μg/kg 5 minutes before antigen challenge.
The sensitivity of various drug treatments were determined in terms of the decrease in duration of dyspnea in comparison with a group of vehicle treated controls. Usually, a compound was evaluated at a series of doses and an ED50 value was determined. This was defined as the dose (mg/kg) which would inhibit the duration of symptoms by 50%.

[4] = 1.5 mg/kg p.o., 1 hour before challenge

CC[C@@H](CO)NC(=O)[C@@H]1C=C2c3cccc4c3c(cn4C)C[C@H]2N(C)C1 [methysergide]
blocking of the serotonin component of continuous dyspnea [1]: completely blocked

CCCc1c(O)c(C(C)=O)cc(F)c1OCCCS(=O)(=O)c1ccc([C@H](O)[C@@H](C)CC(=O)O)cc1 (relative stereo) [Compound I, (4R*,3S*)-4-[4-(3-(4-acetyl-6-fluoro-3-hydroxy-2-propylphenoxy)propyl-sulfonyl)phenyl]-4-hydroxy-3-methylbutanoic acid]
potency as antagonists of leukotrienes C4, D4 and E4 and of SRS-A [2]: unexpectedly much more potent
Inhib. of Dyspnea ([3]; 0.05 mg/kg p.o., 2 hours before challenge): 40%
Inhib. of Dyspnea ([3]; 0.15 mg/kg p.o., 2 hours before challenge): 48%
Inhib. of Dyspnea ([3]; 0.5 mg/kg p.o., 2 hours before challenge): 57%
Inhib. of Dyspnea [3, 4]: 55%
Inhib. of Dyspnea ([3]; 1.5 mg/kg p.o., 2 hours before challenge): 59% and 65%
Inhib. of Dyspnea ([3]; 1.5 mg/kg p.o., 4 hours before challenge): 65%
Inhib. of Dyspnea ([3]; 1.5 mg/kg p.o., 6 hours before challenge): 63%
ED50 ([3]; 2 hrs before challenge): 0.21 mg/kg
absorption by the oral route ([3]; judged from activity p.o. in the Asthmatic Rat Assay): good absorption by the oral route
duration of action ([3]; p.o., in words): satisfactory duration of action
potency ([3]; p.o., in words): high potency
activity compared with the closely related reference compounds ([3]; versus Ex. 77 and Ex. 93 of EP 104,885, p.o.): significantly more active than the closely related reference compounds

CCCc1c(OCCCS(=O)(=O)c2ccc([C@H](O)[C@@H](C)CC(=O)O)cc2)ccc(C(C)=O)c1O (relative stereo) [Ex. 77, (4R*,3S*)-4-[4-(3-(4-acetyl-3-hydroxy-2-propylphenoxy)propylsulfonyl)phenyl]-4-hydroxy-3-methybutanoic acid, reference compound]
Inhib. of Dyspnea ([3]; 0.15 mg/kg p.o., 1 hour before challenge): 33%
Inhib. of Dyspnea ([3]; 0.5 mg/kg p.o., 1 hour before challenge): 29%
Inhib. of Dyspnea [3, 4]: 29%
Inhib. of Dyspnea ([3]; 5.0 mg/kg p.o., 1 hour before challenge): 44%
ED50 ([3]; 1 hr before challenge): > 5 mg/kg

CCCc1c(O)c(C(C)=O)cc(F)c1OCCCSc1ccc([C@H](O)[C@@H](C)CC(=O)O)cc1 (relative stereo) [Ex. 93, (4R*,3S*)-4-[4-(3-(4-acetyl-6-fluoro-3-hydroxy-2-propylphenoxy)propylthio)phenyl]-4-hydroxy-3-methylbutanoic acid, reference compound]
Inhib. of Dyspnea [3, 4]: 26%
